# Measured values taken from patent publication US6340689B1 (priority 1999, dated 2002).
# Experiments:
# [1] = test system: L. pneumophila serogroup 1; test: microbe, parasite or virus in culture; assay type: cell-based, Legionella pneumophila; details: Legionella pneumophila; for MIC: 48 h, read-out: MIC Range; for MIC90: L. pneumophila serogroup 1 (n = 85)
# [2] = test system: L. pneumophila serogroup 2; test: microbe, parasite or virus in culture; assay type: cell-based; details: Legionella pneumophila; for MIC: 48 h, read-out: MIC Range
# [3] = test system: L. pneumophila serogroup 3; test: microbe, parasite or virus in culture; assay type: cell-based; details: Legionella pneumophila; for MIC: 48 h, read-out: MIC Range
# [4] = test system: L. pneumophila serogroup 4; test: microbe, parasite or virus in culture; assay type: cell-based; details: Legionella pneumophila; for MIC: 48 h, read-out: MIC Range
# [5] = test system: L. pneumophila serogroup 5; test: microbe, parasite or virus in culture; assay type: cell-based; details: Legionella pneumophila; for MIC: 48 h, read-out: MIC Range
# [6] = test system: L. pneumophila serogroup 6; test: microbe, parasite or virus in culture; assay type: cell-based; details: Legionella pneumophila; for MIC: 48 h, read-out: MIC Range
# [7] = test system: L. pneumophila serogroup 7; test: microbe, parasite or virus in culture; assay type: cell-based; details: Legionella pneumophila; for MIC: 48 h, read-out: MIC Range
# [8] = test system: L. pneumophila serogroup 8, 9; test: microbe, parasite or virus in culture; assay type: cell-based; details: Legionella pneumophila; for MIC: 48 h, read-out: MIC Range
# L. dumoffii = test: organism not typed; assay type: cell-based; details: for MIC: 48 h, read-out: MIC Range
# L. micadadei = test: organism not typed; assay type: cell-based, L. micdadei; details: for MIC: 48 h, read-out: MIC Range
# L. longbeacheae = test: organism not typed; assay type: cell-based; details: for MIC: 48 h, read-out: MIC Range
# Other Legionella spp. = test: microbe, parasite or virus in culture; assay type: cell-based; details: for MIC: 48 h, read-out: MIC Range
# [9] = test system: Erythromycin-susceptible L. pneumophila; assay type: cell-based, Legionella pneumophila; details: Erythromycin-susceptible L. pneumophila (n = 15); 4 × MIC; mean ± SD
# [10] = test system: Erythromycin-susceptible Legionella spp. other than L. pneumophila; assay type: cell-based; details: Erythromycin-susceptible Legionella spp. (n = 13); 4 × MIC; mean ± SD
# [11] = test system: isolates of Legionella pneumophila and other Legionella spp.; test: microbe, parasite or virus in culture; assay type: cell-based
Compound,MIC50 [1],MIC [1],MIC90 [1],MIC50 [2],MIC90 [2],MIC [2],MIC50 [3],MIC90 [3],MIC [3],MIC50 [4],MIC90 [4],MIC [4],MIC50 [5],MIC90 [5],MIC [5],MIC50 [6],MIC90 [6],MIC [6],MIC50 [7],MIC90 [7],also measured
COc1c(N2C[C@@H]3CCCN[C@@H]3C2)c(F)cc2c(=O)c(C(=O)O)cn(C3CC3)c12 [Moxifloxacin],16 ng/mL,4 to 30 ng/mL,16 ng/mL,8 ng/mL,8 ng/mL,4 to 16 ng/mL,8 ng/mL,16 ng/mL,4 to 16 ng/mL,16 ng/mL,16 ng/mL,4 to 16 ng/mL,16 ng/mL,16 ng/mL,4 to 30 ng/mL,8 ng/mL,16 ng/mL,4 to 16 ng/mL,≤ 4 ng/mL,16 ng/mL,MIC [7]: 4 to 16 ng/mL; MIC50 [8]: 16 ng/mL; MIC90 [8]: 16 ng/mL; MIC [8]: 16 ng/mL; MIC50 (L. dumoffii): 30 ng/mL; MIC90 (L. dumoffii): 30 ng/mL; MIC (L. dumoffii): 8 to 30 ng/mL; MIC50 (L. micadadei): 16 ng/mL; MIC90 (L. micadadei): 30 ng/mL; MICs fold more active than erythromycin (L. micadadei): 5 fold; MIC (L. micadadei): 8 to 30 ng/mL; MIC50 (L. longbeacheae): 16 ng/mL; MIC90 (L. longbeacheae): 30 ng/mL; MIC (L. longbeacheae): 8 to 30 ng/mL; MIC50 (Other Legionella spp.): 8 ng/mL; MIC90 (Other Legionella spp.): 30 ng/mL; MIC (Other Legionella spp.): 8 to 30 ng/mL; Mean PAE [9]: 3.59 ± 3 h; Mean PAE [10]: 1.18 ± 2 h; MIC90 [11]: 16 ng/mL
N[C@@H]1[C@H]2CN(c3nc4c(cc3F)c(=O)c(C(=O)O)cn4-c3ccc(F)cc3F)C[C@@H]12 [Trovafloxacin],≤ 4 ng/mL,4 to 16 ng/mL,≤ 4 ng/mL,≤ 4 ng/mL,≤ 4 ng/mL,≤ 4 ng/mL,≤ 4 ng/mL,≤ 4 ng/mL,≤ 4 ng/mL,≤ 4 ng/mL,≤ 4 ng/mL,≤ 4 ng/mL,≤ 4 ng/mL,≤ 4 ng/mL,4 to 8 ng/mL,≤ 4 ng/mL,≤ 4 ng/mL,≤ 4 ng/mL,≤ 4 ng/mL,≤ 4 ng/mL,MIC [7]: ≤ 4 ng/mL; MIC50 [8]: ≤ 4 ng/mL; MIC90 [8]: ≤ 4 ng/mL; MIC [8]: ≤ 4 ng/mL; MIC50 (L. dumoffii): 8 ng/mL; MIC90 (L. dumoffii): 8 ng/mL; MIC (L. dumoffii): 4 to 8 ng/mL; MIC50 (L. micadadei): ≤ 4 ng/mL; MIC90 (L. micadadei): ≤ 4 ng/mL; MIC (L. micadadei): ≤ 4 ng/mL; MIC50 (L. longbeacheae): ≤ 4 ng/mL; MIC90 (L. longbeacheae): ≤ 4 ng/mL; MIC (L. longbeacheae): ≤ 4 ng/mL; MIC50 (Other Legionella spp.): ≤ 4 ng/mL; MIC90 (Other Legionella spp.): ≤ 4 ng/mL; MIC (Other Legionella spp.): ≤ 4 ng/mL; Mean PAE [9]: 1.71 ± 1 h; Mean PAE [10]: 1.22 ± 1 h; MIC90 [11]: ≤ 8 ng/mL
